Laboratory results published in US6011000A, “Compositions for the treatment of blood disorders” (priority 1995, dated 2000).

Tests used:
K562 cells = test: Dose response of cell growth, trypan blue exclusion (FIG. 3); assay type: cell-based, human; details: up to 2.0 mM, day 4
Procedure: FIG. 3 Cell viability as determined by the comparative numbers of total and viable K562 cells in the presence of increasing concentrations of (A) phenoxyacetic acid, (B) dihydrocinnamic acid, (C) butyric acid ethyl ester, (D) arginine butyrate, and (E) isobutyramide.
Dose response curves at dosages of up to 2.0 mM were also determined for phenoxyacetic acid (PAA; FIG. 3A), dihydrocinnamic acid (DHC; FIG. 3B), butyric acid ethyl ester (BAEE; FIG. 3C), arginine butyrate (AB; FIG. 3D) and isobutyramide (IBT; FIG. 3E). Cells were counted on day 4 of treatment and viable cells identified by trypan blue exclusion.

[1] = system: erythroid cells (peripheral blood); test: Erythroid cell viability by fluorescent staining (Calcein-AM), FIG. 2; assay type: cell-based, human; details: 0.5 mM, vs untreated controls
Procedure: FIG. 2 Peripheral blood cell viability after incubation with arginine butyrate, dihydrocinnamic acid, phenoxyacetic acid and butyric acid ethyl ester.
Compositions were tested for the ability to directly stimulate erythroid cell growth. Cell growth stimulation is a useful property for an agent to be used to treat anemias and distinguishes such agents from the cytotoxic drugs currently being tested for treatment of hemoglobinopathies. Cell viability analyses were performed using fluorescent staining to detect living cells. Cells were in log phase of growth in 6-well dishes when used in proliferation assays. For enumeration of living cells, wells were washed once with medium to remove nonadherent or dead cells. Remaining live cells were labeled with 2 μM 2',7'-bis-(carboxyethyl)-5-(and 6)-carboxy-fluorescein acetoxy-methyl ester (Calcein-AM) (Molecular Probes; Eugene, Oreg.) for 20 minutes at 37° C. and washed once. Fluorescence intensity of live cells was read on a CytoFluor 2300 Fluorescence Plate Scanner (Millipore; Bedford, Mass.) at excitation and emission wavelengths of 485 and 530 nm, respectively. The fluorescence intensity of a well was proportional to the number of living cells in the well. Background fluorescence was measured separately for each plate and subtracted from all readings. Each experiment was performed in triplicate or quadruplicate. The standard deviation (SD) of repetitive readings was less than 30% of the mean. Results are depicted in FIG. 2.

[2] = system: fetal globin mRNA (human erythroleukemia cells); test: Fetal globin mRNA in erythroleukemia cells (primer extension); assay type: cell-based
Procedure: Compounds were tested for increased expression of the human globin genes in human erythroid cells. In addition, as the cell line being tested is a tumor cell line, the assay determines if differentiation, a growth inhibitory effect on cancer cells, is induced by the compounds tested. Human erythroleukemia cells were cultured in RPMI media with 10% fetal calf serum alone or with treatment with various compounds for 4 days. Globin MRNA was quantitated by primer extension analysis. Fetal globin mRNA was compared to the amount of fetal globin mRNA produced in untreated cells during the same culture period. The quantitation was expressed as a percent of alpha globin MRNA which was constant. Results are expressed proportional to α-globin mRNA (Table 3).

[3] = system: fetal globin (gamma globin); test: Fetal globin expression in erythroid progenitor cells from cord blood; assay type: cell-based, human
Procedure: Compositions were tested for activity in inducing fetal globin expression and protein production in erythroid progenitor cells cultured from human cord blood and analyzed as described by S. P. Perrine et al. (Blood 74: 454-60, 1989). Briefly, mononuclear cells were cultured in IMDM with 30% fetal calf serum and 2 units erythropoietin per ml to induce erythroid differentiation. Colonies were harvested on day 12-13, incubated with radio-labelled (^3 H) leucine, and further incubated in leucine-free media, still in the presence of compounds, overnight. Globin composition in the erythroid cells was analyzed by laser densitometry of electrophoretically separated globin chains stained with Coomassie blue, and by autoradiography. Treated cells were incubated for 12-13 days (Table 2, Experiments A and B) or overnight (Table 2, Experiment C) in the presence of the indicated compounds and compared to untreated control cells cultured from the same human subject.

human erythroid cells = test: DNA fragmentation by flow cytometry (degradation of DNA); assay type: cell-based
Procedure: Such activities might limit their utility for treatment of anemias such as occur in thalassemia, but alternatively would be useful for anticancer effects. To determine cell viability, human erythroid cells were cultured in the presence and absence of these compounds for 4 days and the amount of DNA fragmentation which occurred was measured.
Flow cytometric determination of DNA profiles and DNA fragmentation were determined. Cytometric analysis was performed with a FACScan (Becton Dickenson Instruments; Columbia, Md.). The data analysis and display were performed using the Cell-Fit software program. Approximately 0.5×10^6 cells were washed twice with PBS and resuspended in 1 ml of 1% sodium citrate, 0.1% Triton X-100 and 50 μg of propidium iodide/ml. Resulting permeabilized cells were kept in the dark at 4° C. overnight before DNA profile or DNA fragmentation analysis (Table 4).

K562 = test: Growth of human erythroid cell line K562; assay type: cell-based; details: for growth of K562: 0.5 mM, over 3 days
Procedure: Such activities might limit their utility for treatment of anemias such as occur in thalassemia, but alternatively would be useful for anticancer effects. […]
Cell viability analyses were performed using fluorescent staining to detect living cells. Cells were in log phase of growth in 6-well dishes when used in proliferation assays. For enumeration of living cells, wells were washed once with medium to remove nonadherent or dead cells. Remaining live cells were labeled with Calcein-AM for 20 minutes at 37° C. and washed once. Fluorescence intensity of adherent live cells was read on a CytoFluor 2300 Fluorescence Plate Scanner (Millipore; Bedford, Mass.) at excitation and emission wavelengths of 485 and 530 nm, respectively. The fluorescence intensity of a well was proportional to the number of living cells in the well. Background fluorescence was measured separately for each plate and subtracted from all readings. Each experiment was performed in triplicate or quadruplicate. The standard deviation (SD) of repetitive readings was less than 30% of the mean.
At higher concentrations, still easily achievable in vivo, arginine butyrate (0.5 mM) and dihydrocinnamic acid (greater than 0.5 mM) inhibited growth of this tumor cell line by approximately 50%. Therefore, these compounds are also useful as anti-tumor agents.

[4] = system: BFU-e (burst forming unit-erythroid); test: BFU-e stimulation (colony growth) in cultured peripheral blood mononuclear cells; assay type: cell-based; details: Homo sapiens, PBMC; 0.1 mM; read-out: more BFU-e colonies from the same number of mononuclear cells than control cultures
Procedure: Peripheral blood was collected from normal volunteers and patients with anemia due to sickle cell disease or thalassemia Mononuclear cells were isolated by Ficoll-Hypaque (Pharmacia Biotech; Piscataway, N.J.) centrifugation and cultured in Iscove's Modified Dulbecco's Media (IMDM; GIBCO/BRL; Grand Island, N.Y.) supplemented with 10% fetal calf serum, 300 μg/ml glutamine, 3 units/ml IL 3 (Amgen; Thousand Oaks, Calif.), and 2 units/ml erythropoietin (Terry Fox Labs; Vancouver, B.C.). Chemical compounds were obtained from Sigma Chemical (St. Louis, Mo.) or Aldrich Chemical (Milwaukee, Wis.), unless otherwise indicated, and formulated into pharmaceutical compositions by dissolving in aqueous solutions of media or sterile water pH adjusted to about 7.4. Solutions were sterilized by passage at least once through 0.22 micron Nalgene filters and added to cell cultures at final concentrations that are pharmaceutically achievable in vivo (typically between about 0.1 mM to 2.0 MM). Cells were incubated with compounds for between 13-14 days at 37° C. in humidified 5% CO2, and fed and passed, as necessary. Colony growth, proportion of fetal globin-expressing cells and amounts of fetal globin production were assayed. Results are presented in Table 1 as BFU-e stimulation (colony growth). […]

anemic baboon = test: In vivo reticulocyte proliferation, globin expression and blood counts in anemic (phlebotomized) baboons; details: 4 days
Procedure: Experiments were performed to determine if administration of the chemical compositions could induce fetal globin gene expression in an in vivo model similar to humans (S. P. Perrine et al., Brit. J. Haematol. 88:555-61, 1994). Briefly, chemicals were prepared as sterile pharmaceutical solutions in pH adjusted sterile water. A variety of chemical compositions were administered sequentially to some baboons. After administration of one compound, a wash-out period with no compound administration was maintained until reticulocytes returned to base line prior to administration of the next compound. This was done, at least partly, to compare the magnitude of response which occurred within the same individual animal to different compounds.
Briefly, juvenile female baboons (2 years old) were catheterized with arterial and venous catheters and phlebotomized gradually every day to maintain a moderate anemia of 7.0 to 7.5 grams hemoglobin/dl. Fetal reticulocytes, the newly produced red blood cells containing fetal globin, were assayed using a monoclonal antibody against fetal globin (HbF) as described by G. Dover et al. (Blood 67:735-38, 1986). Briefly, blood was stained with two antibodies, one specific for reticulocytes and another against fetal globin protein. The amount of antibody bound cells was determined by FACS analysis. Globin chain synthesis was assayed as described by J. B. Clegg et al. (J. Mol. Biol. 19:91-108, 1966). Briefly, reticulocytes were radio-labeled with ^3 H-leucine which was incorporated in equal proportions into actively synthesized globin chains. After incubation in leucine-free media, cells were washed, and globin proteins were separated and purified by column chromatography. Radioactivity incorporated into each peak is compared and the ratios of gamma to gamma plus beta globin calculated. Each animal served as its own control with baseline monitoring assays performed for 4-6 weeks before any drug was administered. Phlebotomy was continued daily, so that peripheral HbF levels in the animals were not considered to be accurate over the short treatment time-frames and were not monitored. Safety monitoring was performed by frequent physical examinations, quantitation of food eaten, activity and frequent chemistry and hematology monitoring. Complete blood counts were assayed before, during and after treatment. Results presented were not adjusted to account for the daily phlebotomy.

[5] = system: hemoglobin polymerization; details: artificially deoxygenated blood; cited from earlier work
[6] = Exp. A, 0.1 mM, 12-13 days, untreated 76.0%
[7] = Exp. C, 0.1 mM, overnight, untreated 52.0%

SMILES: CCCC(=O)OCC [BAEE, butyric acid ethyl ester]
- proliferation (K562 cells): did not significantly inhibit proliferation
- erythroid cell growth and proliferation [1]: either had no effect or stimulated erythroid cell growth and proliferation
- induction of fetal globin mRNA [2]: significantly increased the induction of fetal globin MRNA
- stimulation of fetal globin expression relative to AB ([2]; 1.0 mM): over two times greater than even AB alone
- Gamma/Alpha ([2]; 1.0 mM, 4 days, untreated 0.46): 0.90
- activation at 1000 µM ([2]; Homo sapiens, 96 h, 1.0 mM, 4 days, read-out: Gamma Globin mRNA (increase)): 44%
- Gamma/(Gamma + Beta) [3, 6]: 89.5%
- Gamma/(Gamma + Beta) ([3]; Exp. B, 0.2 mM, 12-13 days, untreated 25.4%, 27.5%): 74.0%
- Gamma/(Gamma + Beta) [3, 7]: 64.6%
- proportion of degraded DNA (human erythroid cells; 1.0 mM to 2.0 mM, untreated 26%): 13.8%
- Degraded DNA (human erythroid cells; 2.0 mM, 4 days, control 26%, 22%): 13.8%
- DNA fragmentation / cell viability / DNA integrity (human erythroid cells; DNA fragmentation assays): reduce DNA fragmentation
- growth of K562 (K562): either did not inhibit, or slightly enhanced growth

SMILES: O=C(O)CCc1ccccc1 [DHC, Dihydrocinnamic acid]
- activation at 100 µM [4]: 124%
- erythroid cell growth and proliferation [1]: either had no effect or stimulated erythroid cell growth and proliferation
- Gamma/(Gamma + Beta) [3, 6]: 88.0%
- Gamma/(Gamma + Beta) [3, 7]: 76.0%
- Gamma/(Gamma + Beta) ([3]; Exp. C, 0.2 mM, overnight, untreated 52.0%): 71.9%
- Gamma/(Gamma + Beta) ([3]; Exp. C, 0.5 mM, overnight, untreated 52.0%): 71.3%
- growth of K562 (K562): either did not inhibit, or slightly enhanced growth
- growth inhibition of K562 (K562; greater than 0.5 mM): approximately 50%
- red blood cell count (anemic baboon; 1,000 mg/kg/day i.v., from 2.3): 2.73 10^6 cells/μl
- Total hemoglobin (anemic baboon; 1,000 mg/kg/day i.v., from 6.6): 7.3 grams/dl
- packed red blood cell volume (anemic baboon; 1,000 mg/kg/day i.v., from 20.9%): 22.7 % of the blood
- Fetal reticulocytes (anemic baboon; 300 to 500 mg/kg per day infused, from 10%): 17%

SMILES: CC(C)(Oc1ccc(Cl)cc1)C(=O)O [clofibric acid]
- inhibition of polymerization [5]: inhibit polymerization

SMILES: O=C(O)COc1ccc(Cl)cc1 [p-chloro phenoxy acetic acid]
- inhibition of polymerization [5]: inhibit polymerization
